EC50 and IC50 data for 14 compounds are collected here from patent US8791155B2, “Chroman derivatives” (Edison Pharmaceuticals, Inc., priority 2003, dated 2014).

In general, EC50 refers to the concentration giving half of the maximal effect.

Experiment [1] deals with dopaminergic neuronal cell line. The experiment is described as follows: High glutamate-induced oxidative stress assay (HGOS). Particulars: Mus musculus; 30 mM glutamate, 16 hrs; read-out: EC50, protection against HGOS cell injury and cell death. Format: cell-based. From the text: Protection against redox stress can be evaluated in cell culture using high glutamate induced oxidative stress (HGOS) in mouse dopaminergic cell lines. The cytotoxic effect of glutamate is not due to excitotoxicity, as this cell line is devoid of inotropic glutamate receptors. Rather, the glutamate-induced toxicity of dopaminergic cells is associated with an inhibition of cystine transport which subsequently leads to depletion of intracellular glutathione (GSH) levels (Murphy T. H., et al. Neuron 2, 1547-1558, 1989), activation of neuronal 12-lipoxygenase (Li, Y. et al., Neuron 19, 453-463, 1997), increased ROS production (Tan S. et al., J. Cell Biol. 141, 1423-1432, 1998) and elevated intracellular Cat^2+ (Li, Y. et al., see supra). Some molecules were measured for their ability to protect cells against glutamate-induced stress and the assay is detailed in Examples.
This procedure was used to induce high glutamate-induced oxidative stress (HGOS) in a dopaminergic neuronal cell line. Using this assay the potency and efficacy of test articles against HGOS neuronal cell injury and cell death was established in a high throughput manner.
• Dopaminergic neuronal cell lines • DMEM-No Glucose (Life Technologies Cat #11966-025) • L-glutamine (Life Technologies Cat #25030-081) • L-glutamic acid, monosodium salt (Sigma Cat #G5889) • D-glucose (Sigma Cat #G-6151) • 10×HBSS buffer (pH 7.4) (950 ml Pyrogen-free water, 2.44 g/L MgCl2.6H20, 3.73 g/L KCl, 59.58 g/L Hepes, 58.44 g/L NaCl, 1.36 g/L KH2PO4, 1.91 g/L CaCl2.2H2O and pH to […] with HCl) • Cell Tracker Green fluorescent dye (Molecular Probes, Cat #2925). Prepare a 5NM solution in pre-warmed HBSS just prior to use. • Sterile 96-well plates precoated with poly-D-lysine (Corning Catalog #3665) • 96-well deep well mother plate, DyNA Block 1000 (VWR Catalog #40002-008) Neuronal Cells
The cells were seeded into 96-well plates at a density of 2000 per well and left to grow for 72 hours in a 33° C. incubator with 5% CO2 in air atmosphere. The passage number of the cells for each assay experiment were no later than p11 in order to minimize experimental variation.
All compounds were dissolved in DMEM-No Glu containing 1 mM glucose, 30 mM glutamate and 1× Pen/Strep. DMEM-No Glu with 1 mM glucose and 1× P/S was used as the negative control, DMEM-No Glucose with 1 mM glucose, […] glutamate was used as a positive control and 100 NM Glutathione was added to the positive control as a standard. All of the procedures for this involving the making and dilution of compounds were performed using aseptic conditions and with minimal light.
The plates were removed from the incubator and examined under the microscope for morphological appearance and density. Using an aseptic technique and an 8-channel aspirator the media was carefully removed from the cells and replaced with 200 μI of 1×HBSS. This was done as quickly as possible to prevent the cells drying out. The plates were then placed in the humidified 37° C. incubators of the Biomek 2000 Side Loader. Four plates were washed at a time so as to minimize the time that the cells were sitting in 1×HBSS prior to addition of the compound test solution. Experimental Setup
The Beckman Biomek workstations were used to load the compounds and controls from the mother plates onto the cell plates that were prewashed with HBSS under sterile conditions. The plates were incubated in the upper HTS incubator at 37° C. in 5% CO2 for exactly 16 hrs. The following day, using the Beckman Biomek workstations, the plates were removed from the incubator. Using Cell Tracker Addition, the compounds were removed from the plates, washed once with […] of pre-warmed 1×HBSS and then 100 μL of 5 μM Cell Tracker Green was added to each well. The plates were incubated at 37° C. for 30 min to allow the dye to enter the cell and be cleaved by the esterases. […]

The target in experiment [2] is T1, human recombinant 5-lipoxygenase (Homo sapiens, UniProt P09917).
T1 construct: purchased Cayman 60402
T1 sequence (P09917 1-674): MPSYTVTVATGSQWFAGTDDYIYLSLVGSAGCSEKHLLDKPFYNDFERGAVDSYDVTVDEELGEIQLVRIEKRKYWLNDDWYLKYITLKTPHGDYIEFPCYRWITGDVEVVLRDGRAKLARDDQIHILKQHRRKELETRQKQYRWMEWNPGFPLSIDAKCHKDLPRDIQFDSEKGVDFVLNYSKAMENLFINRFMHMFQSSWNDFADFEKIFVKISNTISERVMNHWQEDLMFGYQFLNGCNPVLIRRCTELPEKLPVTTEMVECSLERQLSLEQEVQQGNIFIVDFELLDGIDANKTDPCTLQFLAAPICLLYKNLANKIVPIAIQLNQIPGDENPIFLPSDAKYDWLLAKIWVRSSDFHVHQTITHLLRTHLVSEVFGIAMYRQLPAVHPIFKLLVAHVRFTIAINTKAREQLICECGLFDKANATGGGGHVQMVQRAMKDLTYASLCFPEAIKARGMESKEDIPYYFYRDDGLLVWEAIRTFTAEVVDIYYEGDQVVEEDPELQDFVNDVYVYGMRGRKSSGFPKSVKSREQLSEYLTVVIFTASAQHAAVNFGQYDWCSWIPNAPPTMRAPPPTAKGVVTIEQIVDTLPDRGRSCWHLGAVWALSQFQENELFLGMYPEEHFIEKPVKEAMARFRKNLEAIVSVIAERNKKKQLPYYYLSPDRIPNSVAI
The experiment is described as follows: 5-Lipoxygenase enzyme assay. The class given is biochemical. The settings on record: 70 μM arachidonic acid, pH 7.4, 10 minute incubation; read-out: IC50, inhibition of 5-Lipoxygenase. The text has this:
(§1) In vitro evaluation of the ability of a composition to inhibit the enzymes 5-lipoxygenase, 15-lipoxygenase, or 12/15 lipoxygenase as described in Walidge, N. B. et al Anal. Biochem., 231: 354-358 (1995) using a high throughput colorimetric method; as well as in vitro evaluation of inhibiting LTB4 is described in Examples.
This procedure was used for measuring the enzymatic activity of human recombinant 5-lipoxygenase using a colorimetric method based on the ferric oxidation of xylenol orange.
• 96 well flat bottom microfilter plates (VWR, Catalog #62402-933 9295) • Lipoxygenase screening assay buffer (Cayman, Catalog #760710) • Human recombinant 5-lipoxygenase (Cayman, Catalog #60402) • Arachidonic Acid (Sigma, Catalog #A3555) • Xylenol orange tetrasodium salt (Aldrich, Catalog #227854) • Iron (II) sulfate heptahydrate (Sigma, Catalog #F7002) • Sulfuric acid (95-98%) [18M]—Methanol Procedure
(§2) Human recombinant 5-lipoxygenase (Cayman Cat #60402) was used in this assay. The test compound and/or vehicle was added to 0.51-1 5-lipoxygenase in 50 mM Tris-HCl buffer, pH 7.4. The reaction was initiated by addition of 70 μM arachidonic acid in Tris-HCl buffer, pH 7.4, and terminated after a 10 minute incubation at room temperature by addition of FOX reagent (25 mM sulphuric acid, 100 μM xylenol orange, 100 μM iron (II) sulphate, methanol:water 9:1). The yellow color of acidified xylenol orange was converted to a blue color by the lipid hydroperoxide-mediated oxidation of Fe 2+ ions and the interaction of the resulting Fe 3+ ions with the dye. The complex was allowed to form during a 1 hour incubation at room temperature with shaking. Absorbance of the Fe 3+ complex was then measured at […] using a spectrophotometer.
(§3) Negative controls contained enzyme during the incubation step but substrate was not added until after the FOX reagent.
Compounds were screened at 5 concentrations in triplicate starting at 10 μM

Experiment [3] has as its target T2, porcine leukocyte 12/15-lipoxygenase (Sus scrofa, UniProt P16469).
T2 construct: purchased Cayman 60300
T2 sequence (P16469 1-663): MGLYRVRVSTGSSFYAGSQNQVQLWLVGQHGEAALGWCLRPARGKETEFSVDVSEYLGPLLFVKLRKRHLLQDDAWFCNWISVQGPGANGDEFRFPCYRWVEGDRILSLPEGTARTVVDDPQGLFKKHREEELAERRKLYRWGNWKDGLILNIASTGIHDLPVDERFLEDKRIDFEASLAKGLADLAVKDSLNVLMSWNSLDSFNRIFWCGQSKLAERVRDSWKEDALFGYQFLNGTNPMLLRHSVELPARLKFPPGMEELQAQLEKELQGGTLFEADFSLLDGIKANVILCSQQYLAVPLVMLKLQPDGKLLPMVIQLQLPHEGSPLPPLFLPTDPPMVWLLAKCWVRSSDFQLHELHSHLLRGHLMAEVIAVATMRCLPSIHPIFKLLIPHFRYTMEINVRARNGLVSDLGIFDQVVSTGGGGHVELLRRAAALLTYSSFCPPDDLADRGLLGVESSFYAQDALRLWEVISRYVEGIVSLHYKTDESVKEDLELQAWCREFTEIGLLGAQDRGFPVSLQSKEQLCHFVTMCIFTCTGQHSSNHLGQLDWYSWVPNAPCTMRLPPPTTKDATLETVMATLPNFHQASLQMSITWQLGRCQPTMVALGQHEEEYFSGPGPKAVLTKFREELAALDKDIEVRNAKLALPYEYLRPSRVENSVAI
The experiment is described as follows: 12/15-Lipoxygenase enzyme assay. Format: biochemical. The settings on record: 70 μM arachidonic acid, pH 7.4, 10 minute incubation; read-out: IC50, inhibition of 12/15-Lipoxygenase.
Excerpt: as §1
This procedure was used for measuring the enzymatic activity of porcine leukocyte 12/15-lipoxygenase using a colorimetric method based on the ferric oxidation of xylenol orange.
• 96 well flat bottom microfilter plates (VWR, Catalog #62402-933 9295) • Lipoxygenase screening assay buffer (Cayman, Catalog #760710) • Porcine leukocyte 12/15-lipoxygenase (Cayman, Catalog #60300) • Arachidonic Acid (Sigma, Catalog #A3555) • Xylenol orange tetrasodium salt (Aldrich, Catalog #227854) • Iron (II) sulfate heptahydrate (Sigma, Catalog #F7002) • Sulfuric acid (95-98%) [18M] • Methanol Procedure
as §2, with “Porcine Leukocyte 12/15-lipoxygenase” for “Human recombinant 5-lipoxygenase”, “#60300)” for “#60402)”, “Test” for “The test”, “1.3 U 12/15-lipoxygenase” for “0.51-1 5-lipoxygenase”
as §3
Compounds are screened at 5 concentrations in triplicate starting at 10 μM

Molecules are shown by their SMILES.

Take `Cc1c(C)c2c(c(-c3ccncc3)c1O)CCC(C)(C)O2` [2,2,7,8-Tetramethyl-5-pyridin-4-yl-chroman-6-ol]: the EC50 in experiment [1] was below 5 µM.

As for `Cc1c(C)c2c(c(-c3ccc(Cl)cc3)c1O)CCC(C)(C)O2` [5-(4-Chloro-phenyl)-2,2,7,8-tetramethyl-chroman-6-ol], the IC50 in experiment [2] is below 1 µM.

As to `CCCC1=NN(C)C(=O)C1=Cc1c(O)c(C)c(C)c2c1CCC(C)(C)O2` [4-(6-Hydroxy-2,2,7,8-tetramethyl-chroman-5-ylmethylene)-2-methyl-5-propyl-2,4-dihydro-pyrazol-3-one], the EC50 in experiment [1] is below 5 µM.

`Cc1cc(C2(C)CCc3c(C)c(O)c(C)c(Cl)c3O2)c(C)s1` (centres unmarked) [8-Chloro-2-(2,5-dimethyl-thiophen-3-yl)-2,5,7-trimethyl-chroman-6-ol]: the IC50 in experiment [3] is below 1 µM.

As to `COc1cc(-c2c(O)c(C)c(C)c3c2CCC(C)(C)O3)cc(OC)c1OC` [2,2,7,8-Tetramethyl-5-(3,4,5-trimethoxy-phenyl)-chroman-6-ol], the IC50 in experiment [2] was below 1 µM.

As for `Cc1c(C)c2c(c(Cl)c1O)CCC(C)(c1cccs1)O2` (centres unmarked) [5-Chloro-2,7,8-trimethyl-2-thiophen-2-yl-chroman-6-ol], in experiment [3], the IC50 was below 1 µM.

As to `Cc1c(C)c2c(c(-c3ccccc3)c1O)CCC(C)(C)O2` [2,2,7,8-Tetramethyl-5-phenyl-chroman-6-ol], the EC50 in experiment [1] is below 5 µM.

For `Cc1c(C)c2c(c(-c3ccc(C(C)(C)C)cc3)c1O)CCC(C)(C)O2` [5-(4-tert-Butyl-phenyl)-2,2,7,8-tetramethyl-chroman-6-ol], the IC50 in experiment [2] was below 1 µM.

`COCOc1cc2c(c(C)c1C)OC(C)(CCC=C1SC(=O)NC1=O)CC2` (centres unmarked) [5-[3-(6-Methoxymethoxy-2,7,8-trimethyl-chroman-2-yl)-propylidene]-thiazolidine-2,4-dione]: the EC50 in experiment [1] was below 5 µM.

As for `Cc1c(O)cc(-c2c(O)c(C)c(C)c3c2CCC(C)(C)O3)c(O)c1C` [5-(6-Hydroxy-2,2,7,8-tetramethyl-chroman-5-yl)-2,3-dimethyl-benzene-1,4-diol], in experiment [2], the IC50 is below 1 µM.

For the compound `Cc1c(C)c2c(c(-c3ccc(S(C)(=O)=O)cc3)c1O)CCC(C)(C)O2` [5-(4-Methanesulfonyl-phenyl)-2,2,7,8-tetramethyl-chroman-6-ol], the EC50 in experiment [1] was below 5 µM.

On to `Cc1cc2c(c(C)c1O)CCC(CCCCl)(c1cccs1)O2` (centres unmarked) [2-(3-Chloro-propyl)-5,7-dimethyl-2-thiophen-2-yl-chroman-6-ol], for which, in experiment [3], the IC50 was below 1 µM.

Consider `Cc1c(C)c2c(c(-c3ccc(N(C)C)cc3)c1O)CCC(C)(C)O2` [5-(4-Dimethylamino-phenyl)-2,2,7,8-tetramethyl-chroman-6-ol], for which the EC50 in experiment [1] was below 5 µM.

As for `CC(=CCc1c(O)c(C)c(C)c2c1CCC(C)(C)O2)CCCl` [5-(5-Chloro-3-methyl-pent-2-enyl)-2,2,7,8-tetramethyl-chroman-6-ol], the IC50 in experiment [3] is below 1 µM.
